These results are taken from BindingDB's records for doi:10.1016/j.bmcl.2007.05.099 (Southern Research Institute, 2007).

Structures are written as SMILES.

A short description of this experiment: Inhibition of Mycobacterium smegmatis arabinosyl transferase assessed as [14C]arabinofuranose incorporation.

One may read the IC50 as the concentration that gives 50% inhibition. Consider `O[C@H]1[C@H](O)[C@@H](CN(CC2CCCCC2)CC2CCCCC2)O[C@@H]1/C=C/[C@H]1O[C@H](CN(CC2CCCCC2)CC2CCCCC2)[C@@H](O)[C@@H]1O` [(2R,3S,4S,5R)-2-((bis(cyclohexylmethyl)amino)methyl)-5-(2-((2R,3S,4S,5R)-5-((bis(cyclohexylmethyl)amino)methyl)-3,4-dihydroxy-tetrahydrofuran-2-yl)vinyl)-tetrahydrofuran-3,4-diol], for which the IC50 was determined as 4.15 mM.
The same measure for `O[C@H]1[C@H](O)[C@@H](CN(CC2CCCCC2)CC2CCCCC2)O[C@@H]1CC[C@H]1O[C@H](CN(CC2CCCCC2)CC2CCCCC2)[C@@H](O)[C@@H]1O` [(2R,3S,4S,5R)-2-((bis(cyclohexylmethyl)amino)methyl)-5-(2-((2R,3S,4S,5R)-5-((bis(cyclohexylmethyl)amino)methyl)-3,4-dihydroxy-tetrahydrofuran-2-yl)ethyl)-tetrahydrofuran-3,4-diol]: 3.44 mM.
The same measure for `O[C@@H]1[C@@H](OC[C@H]2O[C@H](CN(CC3CCCCC3)CC3CCCCC3)[C@@H](O)[C@@H]2O)O[C@H](CN(CC2CCCCC2)CC2CCCCC2)[C@H]1O` [(2R,3S,4S,5R)-2-((bis(cyclohexylmethyl)amino)methyl)-5-(((2S,3S,4S,5R)-5-((bis(cyclohexylmethyl)amino)methyl)-3,4-dihydroxy-tetrahydrofuran-2-yloxy)methyl)-tetrahydrofuran-3,4-diol]: 2.8 mM.
